In patent publication US20240390446A1, “COMPOSITIONS AND METHODS FOR TREATING OR PREVENTING INFLAMMATORY DISEASES INCLUDING DIABETES AND THYROID DISEASES” (priority 2021, published 2024):

Assay: Case report: blood glucose levels in pregnant with gestational diabetes given sesame oil and Nigella sativa oil
Assay type: in vivo, human
Method: A pregnant person diagnosed with gestational diabetes and treated with […] was administered daily with 5 ml sesame oil 100% w/v ([…]) and then co-administered with 5 ml sesame oil 100% w/v (Naissance) and 5 ml 100% w/v Nigella sativa oil (Better Flex). During oil treatment glucamin was not administered.
Blood glucose levels (mg/dL) were determined at the indicated hours.

Compound: NC(=O)CC[C@H](N)C(=O)O [glutamin]
- Blood glucose levels (6 AM, 10 Sep. 2020): 172 mg/dL
- Blood glucose levels (6 AM, 11 Sep. 2020): 125 mg/dL
- Blood glucose levels (6 AM, 12 Sep. 2020): 101 mg/dL
- Blood glucose levels (6 AM, 13 Sep. 2020): 113 mg/dL
- Blood glucose levels (6 AM, 14 Sep. 2020): 94 mg/dL
- Blood glucose levels (6 AM, 15 Sep. 2020): 158 mg/dL
- Blood glucose levels (6 AM, 16 Sep. 2020): 148 mg/dL
- Blood glucose levels (6 AM, 17 Sep. 2020): 99 mg/dL
- Blood glucose levels (6 AM, 18 Sep. 2020): 94 mg/dL
- Blood glucose levels (11 AM, 10 Sep. 2020): 154 mg/dL
- Blood glucose levels (11 AM, 11 Sep. 2020): 109 mg/dL
- Blood glucose levels (11 AM, 12 Sep. 2020): 88 mg/dL
- Blood glucose levels (11 AM, 13 Sep. 2020): 84 mg/dL
- Blood glucose levels (11 AM, 14 Sep. 2020): 90 mg/dL
- Blood glucose levels (11 AM, 15 Sep. 2020): 159 mg/dL
- Blood glucose levels (11 AM, 17 Sep. 2020): 124 mg/dL
- Blood glucose levels (11 AM, 18 Sep. 2020): 84 mg/dL
- Blood glucose levels (15 PM, 10 Sep. 2020): 122 mg/dL
- Blood glucose levels (15 PM, 11 Sep. 2020): 126 mg/dL
- Blood glucose levels (15 PM, 12 Sep. 2020): 106 mg/dL
- Blood glucose levels (15 PM, 13 Sep. 2020): 125 mg/dL
- Blood glucose levels (15 PM, 14 Sep. 2020): 134 mg/dL
- Blood glucose levels (15 PM, 15 Sep. 2020): 98 mg/dL
- Blood glucose levels (15 PM, 16 Sep. 2020): 154 mg/dL
- Blood glucose levels (15 PM, 17 Sep. 2020): 90 mg/dL
- Blood glucose levels (15 PM, 18 Sep. 2020): 89 mg/dL
- Blood glucose levels (15 PM, 21 Sep. 2020): 109 mg/dL
- Blood glucose levels (21 PM, 10 Sep. 2020): 97 mg/dL
- Blood glucose levels (21 PM, 11 Sep. 2020): 103 mg/dL
- Blood glucose levels (21 PM, 12 Sep. 2020): 95 mg/dL
- Blood glucose levels (21 PM, 13 Sep. 2020): 80 mg/dL
- Blood glucose levels (21 PM, 14 Sep. 2020): 125 mg/dL
- Blood glucose levels (21 PM, 15 Sep. 2020): 83 mg/dL
- Blood glucose levels (21 PM, 16 Sep. 2020): 88 mg/dL
- Blood glucose levels (21 PM, 17 Sep. 2020): 77 mg/dL
- Blood glucose levels (21 PM, 18 Sep. 2020): 84 mg/dL
- Blood glucose levels (21 PM, 21 Sep. 2020): 74 mg/dL
